From the supplement of paper PMC10307832

What was measured:
Assay in all cases: relative viability (nuclei count vs DMSO), 5 days (fraction); higher = more cells survive
[1] = compound: CN[C@@H]1C[C@H]2O[C@@](C)([C@@H]1OC)n1c3ccccc3c3c4c(c5c6ccccc6n2c5c31)C(=O)NC4 [Staurosporine] + CS(=O)(=O)CCNCc1ccc(-c2ccc3ncnc(Nc4ccc(OCc5cccc(F)c5)c(Cl)c4)c3c2)o1 [Lapatinib] (partner 2 µM)
In short: (§1)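 Lung cancer cell lines, seeded in 1536-well plates, were treated the following day by pin tool with a single drug or with five library-drug doses (not always all listed) in √10 steps on top of a fixed anchor-drug dose. Cells were fixed and nuclei stained in one step after 5 days, and nuclei were counted. Relative viability is the nuclei count for treated wells divided by that for vehicle wells, reported as medians of duplicate plates.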

[2] = compound: CC1=C(CC(=O)O)c2cc(F)ccc2/C1=C\c1ccc([S+](C)[O-])cc1 [Sulindac] + CS(=O)(=O)N1CCN(Cc2cc3nc(-c4cccc5[nH]ncc45)nc(N4CCOCC4)c3s2)CC1 [Pictilisib] (partner 1 µM)
In short: as §1

[3] = compound: O=c1[nH]cc(F)c(=O)[nH]1 [5-Fluorouracil] + C[C@]1(O)C[C@@H](c2nc(-c3ccc4ccc(-c5ccccc5)nc4c3)c3c(N)nccn32)C1 [Linsitinib] (partner 1 µM)
In short: as §1

[4] = compound: O=c1[nH]cc(F)c(=O)[nH]1 [5-Fluorouracil] + CC1(C)CCC(c2ccc(Cl)cc2)=C(CN2CCN(c3ccc(C(=O)NS(=O)(=O)c4ccc(N[C@H](CCN5CCOCC5)CSc5ccccc5)c(S(=O)(=O)C(F)(F)F)c4)cc3)CC2)C1 [Navitoclax] (partner 0.5 µM)
In short: as §1

Cell Line	relative viability ([1]; first compound 0.005 µM)	relative viability ([1]; first compound 0.01581 µM)	relative viability ([1]; first compound 0.05 µM)	relative viability ([1]; first compound 0.1581 µM)	relative viability ([1]; first compound 0.5 µM)	relative viability ([2]; first compound 0.253 µM)	relative viability ([2]; first compound 0.8 µM)	relative viability ([2]; first compound 2.53 µM)	relative viability ([2]; first compound 8 µM)	relative viability ([3]; first compound 0.02 µM)	relative viability ([3]; first compound 0.2 µM)	relative viability ([3]; first compound 0.6325 µM)	relative viability ([3]; first compound 2 µM)	relative viability ([4]; first compound 0.02 µM)	relative viability ([4]; first compound 0.2 µM)	relative viability ([4]; first compound 0.6325 µM)	relative viability ([4]; first compound 2 µM)	relative viability ([2]; first compound 0.08 µM)
NCI-H1666	0.573	0.45	0.425	0.267	0.208	0.442	0.318	0.392	0.56	0.777	0.412	0.401	0.321	0.878	0.406	0.327	0.311	–
LOU-NH91	0.861	0.582	0.539	0.275	0.292	0.514	0.536	0.512	0.574	0.921	0.889	0.646	0.415	0.732	0.637	0.455	0.283	0.584
LXF-289	0.725	–	0.389	0.109	0.0903	0.796	0.769	0.823	0.848	1	0.67	0.389	0.308	0.881	0.625	0.387	0.283	0.955
NCI-H1299	0.985	0.414	0.326	0.201	0.171	0.9	0.651	0.778	0.878	1.09	0.982	0.825	0.59	1.07	1.1	1.06	0.895	0.671
HARA	0.485	0.327	0.308	0.118	0.0844	0.507	–	0.374	0.452	0.963	1.02	0.885	0.891	1.12	1.15	1.11	1.15	0.302
LU99A	0.669	0.313	0.282	0.171	0.133	0.31	0.301	0.267	0.344	0.549	0.607	0.426	0.422	0.755	0.795	0.686	0.563	0.33
201T	1.04	0.957	0.948	0.895	0.637	0.665	0.627	0.678	0.698	0.991	0.955	0.452	0.342	1.18	1.01	0.543	0.42	0.737
HCC-827	0.223	0.186	0.182	0.125	0.163	1.17	0.823	0.88	1.06	0.909	0.95	0.57	0.405	0.969	1	0.592	0.382	0.922
NCI-H1703	0.45	0.313	0.245	0.172	0.151	0.238	0.219	0.229	0.291	0.665	1.16	0.856	0.484	1.32	1.08	0.817	0.61	0.229
NCI-H1975	0.572	0.232	0.227	0.13	0.0954	0.28	–	0.282	0.286	0.902	1.02	0.489	0.308	1.11	1.1	0.514	0.261	0.301
NCI-H2023	0.509	0.11	0.18	0.0948	0.0518	0.213	0.249	0.222	0.234	0.45	0.242	0.131	0.0929	1.01	0.257	0.161	0.122	0.27
ChaGo-K-1	–	–	–	–	–	0.645	0.74	0.647	1.45	–	–	–	–	0.956	1.07	0.672	0.685	0.808
COR-L 105	0.354	0.247	0.247	0.243	0.218	0.36	0.36	0.338	0.489	0.976	0.862	0.937	0.575	0.707	0.685	0.694	0.582	0.392
NCI-H2170	0.289	0.236	0.258	0.197	0.193	0.288	0.291	0.294	0.322	–	–	–	–	0.573	0.557	0.351	0.31	0.274
A549	0.823	0.715	0.499	0.0558	0.0481	0.528	0.327	0.467	0.857	0.633	0.652	0.301	0.119	1.2	0.754	0.244	0.114	0.573
NCI-H460	1.08	0.389	0.455	0.0071	0.0093	0.359	0.219	0.381	0.394	0.872	–	0.163	0.042	1.5	0.461	0.165	0.0655	0.366
NCI-H1993	0.775	0.536	0.639	0.485	0.409	0.787	0.769	0.732	0.927	0.8	0.714	0.713	0.608	0.952	0.885	0.752	0.669	0.827
Calu-6	0.87	0.51	0.277	0.136	0.085	0.989	0.799	0.949	1.17	0.975	1.01	0.82	0.61	0.859	0.786	0.679	0.362	1.03
NCI-H322M	0.746	0.438	0.484	0.402	0.278	0.508	0.419	0.545	0.539	0.898	0.747	0.652	0.64	1.29	1.07	0.853	0.693	0.579

Cell Line	relative viability ([1]; first compound 0.005 µM)	relative viability ([1]; first compound 0.01581 µM)	relative viability ([1]; first compound 0.05 µM)	relative viability ([1]; first compound 0.1581 µM)	relative viability ([1]; first compound 0.5 µM)	relative viability ([2]; first compound 0.253 µM)	relative viability ([2]; first compound 0.8 µM)	relative viability ([2]; first compound 2.53 µM)	relative viability ([2]; first compound 8 µM)	relative viability ([3]; first compound 0.02 µM)	relative viability ([3]; first compound 0.2 µM)	relative viability ([3]; first compound 0.6325 µM)	relative viability ([3]; first compound 2 µM)	relative viability ([4]; first compound 0.02 µM)	relative viability ([4]; first compound 0.2 µM)	relative viability ([4]; first compound 0.6325 µM)	relative viability ([4]; first compound 2 µM)	relative viability ([2]; first compound 0.08 µM)
NCI-H2405	0.395	0.148	0.113	0.0819	0.0797	0.459	0.438	0.407	0.603	0.883	0.967	0.881	0.672	0.93	0.793	0.858	0.59	0.548
HCC-44	0.956	–	0.208	0.0947	0.0895	0.562	0.537	0.687	0.589	0.613	0.57	0.451	0.272	0.916	0.984	0.744	0.341	0.403
HCC-78	0.238	0.22	0.38	0.263	0.232	0.269	0.207	0.183	0.246	0.398	0.528	0.258	–	0.55	0.805	0.285	–	0.309
COR-L23	0.695	0.31	0.241	0.0931	0.0662	0.933	–	0.727	1.07	0.846	0.945	0.43	0.234	1.05	0.949	0.533	0.239	0.987
NCI-H2009	0.249	0.152	0.251	0.125	0.0882	0.8	0.788	0.71	0.932	1.16	1.15	0.934	0.735	1.18	1.16	1.08	0.726	1.04
NCI-H3122	1.01	0.318	0.988	0.665	0.685	0.602	0.592	0.627	0.621	1.09	0.799	0.415	0.223	1.04	0.743	0.443	0.259	0.675
NCI-H2228	0.88	0.49	0.346	0.137	0.115	0.407	0.244	0.383	0.603	0.443	0.627	0.48	0.36	0.808	1.06	0.732	0.42	0.488
NCI-H1944	0.849	–	0.566	0.435	0.304	0.347	0.325	0.342	0.388	1.13	1.19	0.497	0.27	0.926	0.862	0.331	0.24	0.345
NCI-H358	0.534	0.378	0.259	0.152	0.136	0.324	0.316	0.269	0.352	0.704	0.883	0.867	0.483	–	–	–	–	0.262
NCI-H1755	0.556	0.33	0.207	0.142	0.142	0.419	0.304	0.362	0.507	0.96	0.796	0.322	0.254	0.982	0.757	0.291	0.198	0.434
A-427	0.967	0.245	0.56	0.303	0.175	0.507	0.625	0.805	0.717	1.05	1.08	1.11	0.546	0.827	0.999	0.879	0.438	0.84
PC-14	0.293	0.247	0.0956	0.0886	0.0786	0.65	–	0.73	0.757	0.938	0.943	0.765	–	1.13	1.05	0.791	0.499	0.83
ABC-1	0.953	0.799	0.608	0.339	0.502	0.849	0.539	0.542	0.979	0.739	0.987	0.714	0.748	–	–	–	–	0.987
NCI-H661	0.472	0.395	0.266	0.235	0.236	0.412	0.358	0.514	0.461	0.466	0.731	0.654	0.522	–	–	–	–	0.421
LCLC-103H	–	–	–	–	–	0.612	0.545	0.642	0.748	1.16	1.04	0.955	0.645	–	–	–	–	0.757
NCI-H650	0.503	0.393	0.286	0.245	0.184	0.889	0.785	0.915	0.912	0.866	0.691	0.511	0.394	–	–	–	–	0.839
NCI-H1563	0.71	0.541	0.594	0.539	0.472	0.662	0.665	0.65	0.622	1.08	1.25	1.12	0.994	–	–	–	–	0.609
NCI-H1650	0.575	0.165	0.336	0.151	0.117	0.676	0.413	0.555	0.719	–	–	–	–	1.29	0.82	0.63	0.294	0.64
NCI-H441	–	–	–	–	–	0.452	0.373	0.469	0.603	0.51	0.519	0.397	0.301	1	0.502	0.507	0.409	0.627
